Data published in ChEMBL document CHEMBL1201862, “PubChem BioAssay data set” (2004).
The source made the active and inactive calls.

What was measured:
[1] = target: DNA repair and recombination protein RAD54-like (Homo sapiens, UniProt Q92698); test: inhibitors of human RAD54 branch migration, confirmation, biochemical, fluorescence, cherry-picked samples, dose series (AID 651657); assay type: functional
HEK293 [2] = test: SAR Analysis of small molecule inhibitors of B-cell specific antigen receptor-induced NF-kB activation in a HEK-293T cell line using a luminescence assay - Set 2. [Related pubchem assays (depositor defined):AID435022, AID435025, AID489021]; assay type: functional, cell-based; settings: Homo sapiens
HEK293 [3] = test: cytotoxicity in HEK293T NF-kB-Luc cells, SAR follow-up, cytotoxicity control for NF-kB activator project, cell-based, resazurin fluorescence (AID 493251); assay type: functional; settings: Homo sapiens
Jurkat = test: SAR Analysis of small molecule inhibitors of […] specific antigen receptor-induced NF-kB activation in a Jurkat cell line using a luminescence assay - Set 3. [Related pubchem assays (depositor defined):AID435022, AID435025, AID465]; assay type: functional, cell-based; settings: Homo sapiens
[4] = target: T1, Dual specificity protein phosphatase 3 (Homo sapiens, UniProt P51452); test: SAR VHR1 Fluorescent Assay for In Vitro dose response studies Set 3. [Related pubchem assays (depositor defined):AID1654, AID1661, AID1878]; assay type: functional
[5] = target: Tyrosine-protein phosphatase non-receptor type 11 (Homo sapiens, UniProt Q06124); test: SHP2 phosphatase inhibition, dose response, selectivity assay for STEP inhibitor project, biochemical (AID 602367); assay type: functional; settings: read-out: IC50_Mean
[6] = target: Tyrosine-protein phosphatase non-receptor type 5 (Homo sapiens, UniProt P54829); test: STEP phosphatase inhibitors, confirmation, biochemical, fluorescence intensity, uHTS hits (AID 602372); assay type: functional; settings: read-out: IC50_Mean
[7] = target: T1, Dual specificity protein phosphatase 3; test: VHR phosphatase inhibition, dose response, selectivity assay for STEP inhibitor project, biochemical (AID 602374); assay type: functional; settings: read-out: IC50_Mean
[8] = target: T2, Mitochondrial peptide methionine sulfoxide reductase (Bos taurus, UniProt P54149); assay type: functional;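 also: absorbance read-out, biochemical high-throughput dose-response screen for MsrA inhibitors, confirmatory; recombinant bovine MsrA coupled to E. coli TrxB with NADPH and selenocystamine; potency is for inhibitors of MsrA activity on DMSO substrate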
T2 sequence (P54149 whole entry): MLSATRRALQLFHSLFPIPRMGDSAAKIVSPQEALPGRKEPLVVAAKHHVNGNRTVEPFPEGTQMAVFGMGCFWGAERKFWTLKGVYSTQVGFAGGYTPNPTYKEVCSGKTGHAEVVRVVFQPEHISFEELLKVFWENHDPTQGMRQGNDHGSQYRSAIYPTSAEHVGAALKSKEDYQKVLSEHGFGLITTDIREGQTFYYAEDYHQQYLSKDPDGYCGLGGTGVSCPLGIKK

[9] = target: Homeodomain-interacting protein kinase 2 (Homo sapiens, UniProt Q9H2X6); assay type: functional;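 also: measured within a kinome-wide kinase profiling panel, HIPK2 being one panel member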
[10] = target: Cell division cycle 7-related protein kinase (Homo sapiens, UniProt O00311); assay type: functional;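 also: value obtained from a kinome-wide kinase panel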
[11] = target: Dual specificity protein kinase CLK4 (Homo sapiens, UniProt Q9HAZ1); assay type: functional
[12] = target: Glycogen synthase kinase-3 beta (Homo sapiens, UniProt P49841); assay type: functional;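 also: value comes from a broad kinome profiling panel, with GSK3B as the panel member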
[13] = target: Interleukin-1 receptor-associated kinase 4 (Homo sapiens, UniProt Q9NWZ3); assay type: functional
[14] = target: cAMP-dependent protein kinase catalytic subunit alpha (Homo sapiens, UniProt P17612); assay type: functional
[15] = target: Serine/threonine-protein kinase pim-1 (Homo sapiens, UniProt P11309); assay type: functional
[16] = target: T3, Methionyl-tRNA synthetase, putative (Trypanosoma brucei brucei, UniProt Q38C91); assay type: functional, Trypanosoma brucei brucei strain 927/4 GUTat10.1
[17] = target: T3, Methionyl-tRNA synthetase, putative; assay type: functional, Trypanosoma brucei brucei strain 927/4 GUTat10.1; remark: listed apart in the source
[18] = Counterscreen for inhibitors of Trypanosoma brucei methionyl tRNA synthetase (MetRS): Luminescence-based cell-based high throughput dose response assay to identify compounds that are cytotoxic to Jurkat human T lymphocyte cells.; assay type: functional
[19] = target: Adenosylmethionine-8-amino-7-oxononanoate aminotransferase (Mycobacterium tuberculosis, UniProt P9WQ81); test: Mycobacterium tuberculosis BioA enzyme inhibitor Measured in Biochemical System Using Plate Reader - 2163-02_Inhibitor_Dose_CherryPick_Activity.; assay type: functional, Mycobacterium tuberculosis UT205
[20] = target: ADP-ribosylation factor GTPase-activating protein 1 (Rattus norvegicus, UniProt Q62848); test: Fluorescence polarization-based biochemical high throughput dose response screening assay to identify inhibitors of ADP-ribosylation factor GTPase activating protein 1 (ARFGAP1).; assay type: functional
A-375 [21] = test: A375 melanoma cell viability reduction, dose response, counter-screen for MITF modulator project, cherry-pick samples, set 2 (AID 540335); assay type: functional, cell-based; settings: Homo sapiens
A-375 [22] = test: MITF: Counter assay: A375 proliferation Measured in Cell-Based System Using Plate Reader - 2084-03_Inhibitor_Dose_DryPowder_Activity. [Related pubchem assays (depositor defined):AID488944]; assay type: functional; settings: Homo sapiens

T3 sequence (Q38C91 whole entry): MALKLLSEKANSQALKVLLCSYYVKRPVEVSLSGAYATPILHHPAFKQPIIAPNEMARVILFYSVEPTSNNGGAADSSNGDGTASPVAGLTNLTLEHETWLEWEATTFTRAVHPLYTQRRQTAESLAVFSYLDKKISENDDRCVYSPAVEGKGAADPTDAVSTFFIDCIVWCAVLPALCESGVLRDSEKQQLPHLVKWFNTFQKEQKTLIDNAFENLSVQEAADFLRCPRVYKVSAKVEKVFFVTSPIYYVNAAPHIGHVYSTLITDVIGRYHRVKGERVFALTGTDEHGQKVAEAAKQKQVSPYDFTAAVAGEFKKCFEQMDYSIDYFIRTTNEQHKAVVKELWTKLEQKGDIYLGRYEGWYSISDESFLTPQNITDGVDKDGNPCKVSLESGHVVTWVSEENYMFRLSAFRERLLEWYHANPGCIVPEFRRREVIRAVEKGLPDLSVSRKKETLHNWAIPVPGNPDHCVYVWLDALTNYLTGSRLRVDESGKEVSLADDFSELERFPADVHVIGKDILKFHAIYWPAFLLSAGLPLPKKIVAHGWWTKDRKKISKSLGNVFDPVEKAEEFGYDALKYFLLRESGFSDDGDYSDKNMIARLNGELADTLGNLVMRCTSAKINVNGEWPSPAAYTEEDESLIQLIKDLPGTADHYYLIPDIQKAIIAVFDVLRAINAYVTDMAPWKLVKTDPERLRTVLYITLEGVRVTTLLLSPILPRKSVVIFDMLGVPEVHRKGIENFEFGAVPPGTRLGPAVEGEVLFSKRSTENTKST
T1 sequence (P51452 whole entry): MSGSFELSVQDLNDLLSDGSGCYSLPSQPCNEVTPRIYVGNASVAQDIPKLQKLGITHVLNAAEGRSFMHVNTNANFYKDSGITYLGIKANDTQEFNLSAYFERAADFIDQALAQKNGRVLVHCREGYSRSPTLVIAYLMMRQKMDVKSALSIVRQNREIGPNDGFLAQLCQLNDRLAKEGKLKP
Sequence of Adenosylmethionine-8-amino-7-oxononanoate aminotransferase (P9WQ81 whole entry): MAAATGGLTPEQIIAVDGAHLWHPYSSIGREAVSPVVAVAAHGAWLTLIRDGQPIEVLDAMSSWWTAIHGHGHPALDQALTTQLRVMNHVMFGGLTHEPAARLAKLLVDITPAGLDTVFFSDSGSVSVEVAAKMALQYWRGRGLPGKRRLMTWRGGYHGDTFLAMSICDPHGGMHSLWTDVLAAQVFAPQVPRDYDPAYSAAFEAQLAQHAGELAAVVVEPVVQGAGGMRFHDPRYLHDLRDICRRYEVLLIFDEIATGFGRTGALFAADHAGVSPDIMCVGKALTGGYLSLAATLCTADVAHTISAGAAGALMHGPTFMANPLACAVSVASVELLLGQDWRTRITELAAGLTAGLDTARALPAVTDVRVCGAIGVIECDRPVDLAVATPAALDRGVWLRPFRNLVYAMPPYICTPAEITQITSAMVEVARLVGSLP
Sequence of Dual specificity protein kinase CLK4 (Q9HAZ1 whole entry): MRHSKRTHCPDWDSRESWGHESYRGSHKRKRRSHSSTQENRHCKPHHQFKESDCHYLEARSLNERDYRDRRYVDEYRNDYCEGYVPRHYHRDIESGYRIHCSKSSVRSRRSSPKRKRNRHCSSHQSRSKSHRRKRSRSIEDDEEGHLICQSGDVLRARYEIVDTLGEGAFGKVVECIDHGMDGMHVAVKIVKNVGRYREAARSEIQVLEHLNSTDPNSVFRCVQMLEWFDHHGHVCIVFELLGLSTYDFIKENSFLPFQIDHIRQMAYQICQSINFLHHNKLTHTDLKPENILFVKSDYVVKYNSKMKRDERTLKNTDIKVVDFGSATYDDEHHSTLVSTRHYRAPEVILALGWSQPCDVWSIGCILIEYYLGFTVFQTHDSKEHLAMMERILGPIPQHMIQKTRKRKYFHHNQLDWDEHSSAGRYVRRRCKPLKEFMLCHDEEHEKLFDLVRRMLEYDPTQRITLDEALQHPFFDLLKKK
Sequence of Tyrosine-protein phosphatase non-receptor type 11 (Q06124 whole entry): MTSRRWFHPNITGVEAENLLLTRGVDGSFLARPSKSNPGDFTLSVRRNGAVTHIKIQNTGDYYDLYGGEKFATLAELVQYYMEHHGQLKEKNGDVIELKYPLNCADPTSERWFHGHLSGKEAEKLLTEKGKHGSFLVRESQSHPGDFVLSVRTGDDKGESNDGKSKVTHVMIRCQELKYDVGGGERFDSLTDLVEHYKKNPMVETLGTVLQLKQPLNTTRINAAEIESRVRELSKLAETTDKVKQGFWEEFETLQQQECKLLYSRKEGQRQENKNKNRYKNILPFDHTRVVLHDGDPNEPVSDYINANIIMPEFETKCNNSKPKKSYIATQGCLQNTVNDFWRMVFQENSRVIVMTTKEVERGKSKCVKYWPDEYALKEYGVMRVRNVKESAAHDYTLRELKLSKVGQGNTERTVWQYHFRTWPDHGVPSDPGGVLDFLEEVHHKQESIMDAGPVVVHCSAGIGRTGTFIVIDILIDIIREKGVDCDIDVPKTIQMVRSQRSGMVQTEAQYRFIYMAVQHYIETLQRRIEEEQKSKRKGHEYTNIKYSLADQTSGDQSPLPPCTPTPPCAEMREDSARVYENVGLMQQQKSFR
Sequence of Interleukin-1 receptor-associated kinase 4 (Q9NWZ3 whole entry): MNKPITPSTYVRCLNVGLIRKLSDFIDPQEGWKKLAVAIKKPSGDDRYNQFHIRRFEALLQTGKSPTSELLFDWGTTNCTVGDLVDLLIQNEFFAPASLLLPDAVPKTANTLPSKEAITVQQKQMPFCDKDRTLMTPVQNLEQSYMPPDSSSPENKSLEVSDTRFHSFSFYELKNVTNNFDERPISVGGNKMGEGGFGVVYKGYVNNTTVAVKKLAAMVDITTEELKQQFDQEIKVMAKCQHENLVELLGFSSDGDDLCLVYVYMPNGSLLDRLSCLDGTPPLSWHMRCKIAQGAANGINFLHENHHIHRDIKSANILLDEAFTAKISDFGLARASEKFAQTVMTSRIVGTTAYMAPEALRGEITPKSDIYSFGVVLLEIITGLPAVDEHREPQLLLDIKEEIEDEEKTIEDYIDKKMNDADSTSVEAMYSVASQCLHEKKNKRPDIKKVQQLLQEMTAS
Sequence of Homeodomain-interacting protein kinase 2 (Q9H2X6 whole entry): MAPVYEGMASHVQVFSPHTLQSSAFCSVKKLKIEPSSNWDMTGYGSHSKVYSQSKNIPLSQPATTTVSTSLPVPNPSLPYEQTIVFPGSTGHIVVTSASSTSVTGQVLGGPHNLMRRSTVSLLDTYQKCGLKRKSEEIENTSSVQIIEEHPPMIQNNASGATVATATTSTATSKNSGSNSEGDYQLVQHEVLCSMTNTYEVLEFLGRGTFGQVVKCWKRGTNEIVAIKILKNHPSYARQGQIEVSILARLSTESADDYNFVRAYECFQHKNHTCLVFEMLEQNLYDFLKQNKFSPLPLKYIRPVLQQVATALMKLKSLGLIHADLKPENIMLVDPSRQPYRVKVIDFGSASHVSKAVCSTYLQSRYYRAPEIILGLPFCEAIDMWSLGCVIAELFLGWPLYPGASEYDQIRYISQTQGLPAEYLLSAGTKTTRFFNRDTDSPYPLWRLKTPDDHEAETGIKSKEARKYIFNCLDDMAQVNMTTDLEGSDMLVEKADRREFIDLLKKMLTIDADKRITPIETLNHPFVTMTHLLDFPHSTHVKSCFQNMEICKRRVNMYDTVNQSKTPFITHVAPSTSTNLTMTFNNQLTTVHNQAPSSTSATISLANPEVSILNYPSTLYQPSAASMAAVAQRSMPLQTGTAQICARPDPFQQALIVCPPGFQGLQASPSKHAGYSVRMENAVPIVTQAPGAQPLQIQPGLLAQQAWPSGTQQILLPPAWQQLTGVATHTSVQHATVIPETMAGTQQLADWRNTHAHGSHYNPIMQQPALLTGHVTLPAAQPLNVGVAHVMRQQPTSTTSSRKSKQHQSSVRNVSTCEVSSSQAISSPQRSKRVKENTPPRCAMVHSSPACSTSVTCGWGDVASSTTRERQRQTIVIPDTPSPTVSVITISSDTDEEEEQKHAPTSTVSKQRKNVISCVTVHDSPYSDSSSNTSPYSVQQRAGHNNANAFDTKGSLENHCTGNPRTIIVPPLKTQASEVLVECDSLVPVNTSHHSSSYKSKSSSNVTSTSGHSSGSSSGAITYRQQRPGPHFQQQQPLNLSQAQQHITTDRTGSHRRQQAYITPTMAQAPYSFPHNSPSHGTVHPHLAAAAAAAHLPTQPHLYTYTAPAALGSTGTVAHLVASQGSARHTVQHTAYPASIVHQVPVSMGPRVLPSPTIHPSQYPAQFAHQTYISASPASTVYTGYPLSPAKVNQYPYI
Sequence of ADP-ribosylation factor GTPase-activating protein 1 (Q62848 whole entry): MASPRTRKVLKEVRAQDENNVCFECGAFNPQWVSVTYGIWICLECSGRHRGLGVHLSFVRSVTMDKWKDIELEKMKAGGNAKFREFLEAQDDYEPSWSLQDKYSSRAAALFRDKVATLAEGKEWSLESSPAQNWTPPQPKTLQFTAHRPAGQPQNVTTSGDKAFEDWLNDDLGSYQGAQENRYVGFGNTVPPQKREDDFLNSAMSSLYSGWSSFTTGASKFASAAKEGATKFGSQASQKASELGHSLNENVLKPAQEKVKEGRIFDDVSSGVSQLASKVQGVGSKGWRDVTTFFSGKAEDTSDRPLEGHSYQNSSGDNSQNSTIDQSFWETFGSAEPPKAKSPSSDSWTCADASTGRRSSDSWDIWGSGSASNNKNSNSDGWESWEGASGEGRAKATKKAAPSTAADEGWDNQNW
Sequence of Serine/threonine-protein kinase pim-1 (P11309 whole entry): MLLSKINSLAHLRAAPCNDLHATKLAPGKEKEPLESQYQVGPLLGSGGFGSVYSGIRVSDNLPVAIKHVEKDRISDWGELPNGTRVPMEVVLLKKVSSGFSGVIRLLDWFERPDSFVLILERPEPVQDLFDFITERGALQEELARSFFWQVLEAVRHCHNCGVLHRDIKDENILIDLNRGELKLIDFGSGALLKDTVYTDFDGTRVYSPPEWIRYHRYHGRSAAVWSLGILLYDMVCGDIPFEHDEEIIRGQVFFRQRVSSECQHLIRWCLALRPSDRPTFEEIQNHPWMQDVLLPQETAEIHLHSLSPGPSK

With `O=C(COc1ccc2c(c1)oc(=O)c1ccccc12)NCCCN1CCOCC1` the AC50 [1] was 29.9 µM (active).

With `CCOc1ccc(-c2nc(CSCC(=O)N3CCC(C)CC3)c(C)o2)cc1` the IC50 (HEK293 [2]) was 9.87 µM (active), the IC50 (HEK293 [3]) was 30 µM (inactive) and the IC50 (Jurkat) was 32.6 µM (inactive).

For `CC(C)(C)c1ccc(-c2noc(CCC(=O)N3CCCCC3)n2)cc1`, the IC50 (HEK293 [2]) was 17.4 µM (active), the IC50 (HEK293 [3]) was 39.7 µM (inactive) and the IC50 (Jurkat) was 11.6 µM (active).

In the case of `COc1ccc(C(=O)NNc2nc3c(OC)cccc3s2)cc1`, the IC50 [4] is reported as > 66 µM (inactive).

For `O=C(N/N=C/c1cccc(Br)c1)c1ccc(N2CCCC2=O)cc1`, the IC50 [5] was 7.26 µM (active), the IC50 [6] was 11.7 µM (active) and the IC50 [7] was 7.56 µM (active).

For `C/C(=N\Nc1ccc(S(N)(=O)=O)cc1[N+](=O)[O-])c1ccc2c(c1)OCO2`, the IC50 [8] was 155 µM (inactive).

In the case of `O=[N+]([O-])c1cccc(-c2nnc3ccc(N4CCCCC4)nn23)c1`, the Ki [9] is reported as 0.0126 µM (active), the Ki [10] is reported as 0.00631 µM (active) and the Ki [11] is reported as 0.01 µM (active). The Ki [12] was 0.0398 µM (active), the Ki [13] was 10 µM (active) and the Ki [14] was > 7.94 µM (inactive). The Ki [15] was 0.0316 µM (active).

In the case of `Cc1c(NS(=O)(=O)c2cccc(C(=O)NCc3cccc(Cl)c3)c2)c(=O)n(-c2ccccc2)n1C`, the IC50 [16] is reported as 21.7 µM (inactive), the IC50 [17] is reported as 119 µM (inactive) and the IC50 [18] is reported as 83.3 µM (inactive).

In the case of `COc1cccc(NC(=O)N2C[C@H](O)COC[C@@H]3O[C@@H](CC(=O)N(C)C)CC[C@H]32)c1`, the AC50 [19] is reported as 0.596 µM (active).

In the case of `CC1CC(C)CN(C(=O)COC(=O)c2cn(C)c3ccccc23)C1` (stereo unspecified), the IC50 [20] is reported as 28.4 µM (inactive).

In the case of `CN(C)c1ccc(/C=N/N2CCN(c3ccccn3)CC2)cc1`, the AC50 (A-375 [21]) is reported as > 35 µM (active) and the AC50 (A-375 [22]) is reported as > 35 µM (active).
